Twelve molecules from US20240010684A1, “MASP INHIBITORY COMPOUNDS AND USES THEREOF” (BAYER AKTIENGESELLSCHAFT, priority 2020, published 2024) can be followed below.

Where a SMILES comes first, the peptide text is derived from it. Bridges are numbered along the chain shown (N, C = ends). [ ]: non-standard residue; d: D form. Oic = O=C(O)[C@@H]1C[C@@H]2CCCC[C@@H]2N1; tBuAla = CC(C)(C)C[C@H](N)C(=O)O; Pen = CC(C)(S)[C@H](N)C(=O)O; NMeC = CN[C@@H](CS)C(=O)O; Abu = CC[C@H](N)C(=O)O; PEG2 = NCCOCCOCCC(=O)O; Ahx = NCCCCCC(=O)O

Assay [1] has as its target human MASP2 (Homo sapiens (Human), UniProt O00187). Nature of the assay: Biochemical human MASP2 assay (FRET substrate). To be noted: Average IC50; recombinant human MASP2; read-out: human MASP2 IC50. The source says: The MASP1 or MASP2 expression vectors were transfected into the HEK293 (ATCC No. CRL-1573) cell line using Lipofectamine LTX® Reagent (Thermo-Fischer), as described by the manufacturer. The mature form of the recombinant human MASP1 and M[…] were secreted into the culture medium. The MASP1 and M[…] were purified from the conditioned media by affinity chromatography on Ni-NTA Superflow resin (Qiagen) as described by the manufacturer. 2.3 Biochemical Human MASP2 Assay […] The enzymatic reaction was initiated by addition of 25 μl of 60 μM solution of the FRET substrate DABCYL-[…]; […] The microtiter plate was incubated for 60-120 min at the temperature of 32 C. The increase of fluorescence intensity was measured in appropriate fluorescence plate reader (e.g. TECAN Ultra) using excitation wavelength of 340 nm and emission wavelength of 490 nm. IC50 values were calculated from percentage of inhibition of human MASP2 activity as a function of test compound concentration.

Assay [2] concerns the target human MASP1 (Homo sapiens (Human), UniProt P48740). Put plainly: Biochemical human MASP1 assay (FRET substrate). To be noted: Average IC50; recombinant human MASP1; read-out: human MASP1 IC50. The source says: A truncated cDNA sequence of human MASP1 encoding the fragment corresponding to the amino acids 297-699 with a C-terminal His Tag and N-terminal Ig-kappa secretion signal (SEQ ID No: 2) was subcloned into the mammalian expression vector pcDNA3.1 (Invitrogen).
The MASP1 or MASP2 expression vectors were transfected into the HEK293 (ATCC No. CRL-1573) cell line using Lipofectamine LTX® Reagent (Thermo-Fischer), as described by the manufacturer. The mature form of the recombinant human MASP1 and MASP2 proteases were secreted into the culture medium. The MASP1 and MASP2 proteins were purified from the conditioned media by affinity chromatography on Ni-NTA Superflow resin (Qiagen) as described by the manufacturer.
2.2 Biochemical Human MASP1 Assay
Recombinant human MASP1 enzyme produced in the HEK 293 cells was diluted in the reaction buffer (50 mM HEPES pH 8,0; 100 mM NaCl; 0,01% CHAPS; 0.5 mM Gluthathione) to the concentration of 20 nM and 25 μl was transferred into each single well of 384-well white microtiter plate (Greiner Bio One 781075). 1 μl of the inhibitor compound solution (dissolved in DMSO, at the corresponding concentration) or pure DMSO as a control was added to the same wells. The enzymatic reaction was initiated by addition of 25 μl of 20 μM solution of the FRET substrate ABZ-[…]-Lys (Dnp)-NH2; (ABZ-2-aminobenzoyl; DNP 2,4-dinitrophenyl; custom synthesis by Jerini Peptide Technologies, Berlin) in the reaction buffer. The microtiter plate was incubated for 60-120 min at the temperature of 32 C. The increase of fluorescence intensity was measured in appropriate fluorescence plate reader (e.g. TECAN Ultra) using excitation wavelength of 320 nm and emission wavelength of 420 nm. IC50 values were calculated from percentage of inhibition of human MASP1 activity as a function of test compound concentration.

Chain of human MASP1 (P48740 other isoform, or with tags, fused parts or gaps): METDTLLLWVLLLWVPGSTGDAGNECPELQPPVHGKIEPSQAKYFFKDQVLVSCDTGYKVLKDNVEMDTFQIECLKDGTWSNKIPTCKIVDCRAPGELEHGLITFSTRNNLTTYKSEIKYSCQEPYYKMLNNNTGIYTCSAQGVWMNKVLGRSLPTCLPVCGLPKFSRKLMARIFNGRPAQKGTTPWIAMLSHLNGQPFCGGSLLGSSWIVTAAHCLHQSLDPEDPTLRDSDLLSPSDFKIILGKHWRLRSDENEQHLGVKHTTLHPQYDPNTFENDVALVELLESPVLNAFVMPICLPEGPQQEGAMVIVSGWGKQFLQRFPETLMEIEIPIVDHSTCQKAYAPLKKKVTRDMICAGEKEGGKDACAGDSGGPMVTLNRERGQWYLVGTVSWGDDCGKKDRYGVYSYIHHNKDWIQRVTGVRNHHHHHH
Chain of human MASP2 (O00187 other isoform, or with tags, fused parts or gaps): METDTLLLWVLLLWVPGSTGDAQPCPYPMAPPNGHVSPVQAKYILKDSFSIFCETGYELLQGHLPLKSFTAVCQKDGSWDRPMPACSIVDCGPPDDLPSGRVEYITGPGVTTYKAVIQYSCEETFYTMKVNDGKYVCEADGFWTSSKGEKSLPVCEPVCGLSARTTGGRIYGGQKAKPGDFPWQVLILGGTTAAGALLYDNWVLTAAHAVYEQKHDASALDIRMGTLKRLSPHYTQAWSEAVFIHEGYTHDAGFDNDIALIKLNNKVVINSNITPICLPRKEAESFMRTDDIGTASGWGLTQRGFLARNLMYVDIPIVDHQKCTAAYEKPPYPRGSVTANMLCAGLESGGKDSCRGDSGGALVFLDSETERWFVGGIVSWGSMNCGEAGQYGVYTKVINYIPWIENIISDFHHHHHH

For the molecule `CC[C@H](C)[C@@H]1NC(=O)[C@H](C)NC(=O)CCCCCNC(=O)[C@@H]2CCCN2C(=O)[C@H]([C@@H](C)CC)NC(=O)[C@@H]2CSSC[C@H](NC1=O)C(=O)N[C@@H](CO)C(=O)N[C@@H](CCCNC(=N)N)C(=O)N[C@@H](CO)C(=O)N[C@@H](CC(C)C)C(=O)N1CCC[C@H]1C(=O)N1[C@@H](C[C@@H]3CCCC[C@@H]31)C(=O)N[C@@H]([C@@H](C)CC)C(=O)N2` [Example 25] (cyclo(AICSRSLP[Oic]ICIP[Ahx]); disulfide 3-11), the half-maximal inhibitory concentration (IC50) (in general, the concentration that inhibits the measured activity by half) in assay [1] stood at 610 nM; in assay [2], 60 nM.

For `CC[C@H](C)[C@@H]1NC(=O)[C@H](C)NC(=O)CNC(=O)[C@H](C)NC(=O)[C@H](CC(=O)O)NC(=O)[C@@H]2CCCN2C(=O)[C@H]([C@@H](C)CC)NC(=O)[C@H]2NC(=O)[C@H]([C@@H](C)CC)NC(=O)[C@@H]3CCCN3C(=O)[C@@H]3CCCN3C(=O)[C@H](CC(C)(C)C)NC(=O)[C@H](CO)NC(=O)[C@H](CCCNC(=N)N)NC(=O)[C@H](CO)NC(=O)[C@H](CSSC2(C)C)NC1=O` [Example 26] (cyclo(AGAICSRS[tBuAla]PPI[Pen]IPD); disulfide 5-13), the results for the half-maximal inhibitory concentration (IC50) in assay [1] and in assay [2] were 170 nM and 12 nM, respectively.

Turning to `CC[C@H](C)[C@@H]1NC(=O)[C@H](C)NC(=O)CCCCCNC(=O)[C@H](CC(=O)O)NC(=O)[C@@H]2CCCN2C(=O)[C@H]([C@@H](C)CC)NC(=O)[C@H]2NC(=O)[C@H]([C@@H](C)CC)NC(=O)[C@@H]3CCCN3C(=O)[C@@H]3CCCN3C(=O)[C@H](CC(C)(C)C)NC(=O)[C@H](CO)NC(=O)[C@H](CCCNC(=N)N)NC(=O)[C@H](CO)NC(=O)[C@H](CSSC2(C)C)NC1=O` [Example 27] (cyclo(AICSRS[tBuAla]PPI[Pen]IPD[Ahx]); disulfide 3-11), the concentration for half-maximal inhibition (IC50) in assay [1] amounted to 37.5 nM; in assay [2], 9.1 nM.

As to `CC[C@H](C)[C@@H]1NC(=O)CNC(=O)CCCCCNC(=O)[C@H](CC(=O)O)NC(=O)[C@@H]2CCCN2C(=O)[C@H]([C@@H](C)CC)NC(=O)[C@@H]2CSSC[C@H](NC1=O)C(=O)N[C@@H](CO)C(=O)N[C@@H](CCCNC(=N)N)C(=O)N[C@@H](CO)C(=O)N[C@@H](CC(C)(C)C)C(=O)N1CCC[C@H]1C(=O)N1CCC[C@H]1C(=O)N[C@@H]([C@@H](C)CC)C(=O)N2C` [Example 30] (cyclo([Ahx]GICSRS[tBuAla]PPI[NMeC]IPD); disulfide 4-12), the concentration for half-maximal inhibition (IC50) in assay [1] was 65 nM; in assay [2], 16 nM.

For the molecule `CC[C@H](C)[C@@H]1NC(=O)[C@H](C)NC(=O)CNC(=O)[C@H](C)NC(=O)[C@H](CC(=O)O)NC(=O)[C@@H]2CCCN2C(=O)[C@H]([C@@H](C)CC)NC(=O)[C@@H]2CSSC[C@H](NC1=O)C(=O)N[C@@H](CO)C(=O)N[C@@H](CCCNC(=N)N)C(=O)N[C@@H](CO)C(=O)N[C@@H](CC(C)(C)C)C(=O)N1CCC[C@H]1C(=O)N1CCC[C@H]1C(=O)N[C@@H]([C@@H](C)CC)C(=O)N2C` [Example 31] (cyclo(AGAICSRS[tBuAla]PPI[NMeC]IPD); disulfide 5-13), the half-inhibitory concentration (IC50) was 130 nM in assay [1] and 16 nM in assay [2].

For `CC[C@@H]1NC(=O)CCCCCNC(=O)[C@H](CC(=O)O)NC(=O)[C@@H]2CCCN2C(=O)[C@H]([C@@H](C)CC)NC(=O)[C@@H]2CSSC[C@H](NC(=O)[C@H]([C@@H](C)CC)NC1=O)C(=O)N[C@@H](CO)C(=O)N[C@@H](CCCNC(=N)N)C(=O)N[C@@H](CO)C(=O)N[C@@H](CC(C)(C)C)C(=O)N1CCC[C@H]1C(=O)N1CCC[C@H]1C(=O)N[C@@H]([C@@H](C)CC)C(=O)N2C` [Example 33] (cyclo([Abu]ICSRS[tBuAla]PPI[NMeC]IPD[Ahx]); disulfide 3-11), the half-inhibitory concentration (IC50) in assay [1] was 62 nM; in assay [2], 28 nM.

Regarding `CC[C@H](C)[C@@H]1NC(=O)[C@H](C)NC(=O)CCOCCOCCNC(=O)[C@H](CC(=O)O)NC(=O)[C@@H]2CCCN2C(=O)[C@H]([C@@H](C)CC)NC(=O)[C@H]2NC(=O)[C@H]([C@@H](C)CC)NC(=O)[C@@H]3CCCN3C(=O)[C@@H]3CCCN3C(=O)[C@H](CC(C)(C)C)NC(=O)[C@H](CO)NC(=O)[C@H](CCCNC(=N)N)NC(=O)[C@H](CO)NC(=O)[C@H](CSSC2(C)C)NC1=O` [Example 34] (cyclo(AICSRS[tBuAla]PPI[Pen]IPD[PEG2]); disulfide 3-11), the half-maximal inhibitory concentration (IC50) in assay [1] is 98 nM; in assay [2], 11 nM.

Consider `CC[C@@H]1NC(=O)CCCCCNC(=O)[C@H](CC(=O)O)NC(=O)[C@@H]2CCCN2C(=O)[C@H]([C@@H](C)CC)NC(=O)[C@H]2NC(=O)[C@H]([C@@H](C)CC)NC(=O)[C@@H]3CCCN3C(=O)[C@@H]3CCCN3C(=O)[C@H](CC(C)(C)C)NC(=O)[C@H](CO)NC(=O)[C@H](CCCNC(=N)N)NC(=O)[C@H](CO)NC(=O)[C@H](CSSC2(C)C)NC(=O)[C@H]([C@@H](C)CC)NC1=O` [Example 38] (cyclo([Abu]ICSRS[tBuAla]PPI[Pen]IPD[Ahx]); disulfide 3-11), for which the IC50 was 44 nM in assay [1] and 20 nM in assay [2].

`CC[C@H](C)[C@@H]1NC(=O)CNC(=O)CCCCCNC(=O)C[C@@H](C(N)=O)NC(=O)[C@@H]2CCCN2C(=O)[C@H]([C@@H](C)CC)NC(=O)[C@@H]2CSSC[C@H](NC1=O)C(=O)N[C@@H](CO)C(=O)N[C@@H](CCCNC(=N)N)C(=O)N[C@@H](CO)C(=O)N[C@@H](CC(C)(C)C)C(=O)N1CCC[C@H]1C(=O)N1CCC[C@H]1C(=O)N[C@@H]([C@@H](C)CC)C(=O)N2C` [Example 40] ([Ahx]GICSRS[tBuAla]PPI[NMeC]IPD-NH2; disulfide 4-12; lactam N-15): the IC50 in assay [1] came out at 90 nM; in assay [2], 7.1 nM.

As for `CC[C@H](C)[C@@H]1NC(=O)[C@H](C)NC(=O)CNC(=O)[C@H](C)NC(=O)C[C@@H](C(N)=O)NC(=O)[C@@H]2CCCN2C(=O)[C@H]([C@@H](C)CC)NC(=O)[C@H]2NC(=O)[C@H]([C@@H](C)CC)NC(=O)[C@@H]3C[C@@H]4CCCC[C@@H]4N3C(=O)[C@@H]3CCCN3C(=O)[C@H](CC(C)C)NC(=O)[C@H](CO)NC(=O)[C@H](CCCNC(=N)N)NC(=O)[C@H](CO)NC(=O)[C@H](CSSC2(C)C)NC1=O` [Example 41] (AGAICSRSLP[Oic]I[Pen]IPD-NH2; disulfide 5-13; lactam N-16), the concentration for half-maximal inhibition (IC50) in assay [1] was determined as 190 nM; in assay [2] it was 5.9 nM.

Take `CC[C@H](C)[C@@H]1NC(=O)CNC(=O)CNC(=O)[C@H](C)NC(=O)C[C@@H](C(N)=O)NC(=O)[C@@H]2CCCN2C(=O)[C@H]([C@@H](C)CC)NC(=O)[C@H]2NC(=O)[C@H]([C@@H](C)CC)NC(=O)[C@@H]3C[C@@H]4CCCC[C@@H]4N3C(=O)[C@@H]3CCCN3C(=O)[C@H](CC(C)C)NC(=O)[C@H](CO)NC(=O)[C@H](CCCNC(=N)N)NC(=O)[C@H](CO)NC(=O)[C@H](CSSC2(C)C)NC1=O` [Example 42] (AGGICSRSLP[Oic]I[Pen]IPD-NH2; disulfide 5-13; lactam N-16): the half-inhibitory concentration (IC50) was found to be 200 nM in assay [1] and 13 nM in assay [2].

As to `CC[C@H](C)[C@@H]1NC(=O)[C@H](C)NC(=O)CCCCCNC(=O)[C@H](CC(=O)O)NC(=O)[C@@H]2CCCN2C(=O)[C@H]([C@@H](C)CC)NC(=O)[C@@H]2CSSC[C@H](NC1=O)C(=O)N[C@@H](CO)C(=O)N[C@@H](CCCNC(=N)N)C(=O)N[C@@H](CO)C(=O)N[C@@H](CC(C)C)C(=O)N1CCC[C@H]1C(=O)N1CCC[C@H]1C(=O)N[C@@H]([C@@H](C)CC)C(=O)N2` [Example 45] (cyclo(AICSRSLPPICIPD[Ahx]); disulfide 3-11), the concentration for half-maximal inhibition (IC50) came out at 74 nM in assay [1] and 92 nM in assay [2].
